Legend:
[1] = body weights of mice during the experiment; assay type: in vivo, C57BL/6 mice; conditions: LU, lutein 6.15 mg/kg bw oral daily, blue light, mean±S.E.M., in g (unit assumed)
Description: In the present invention, six-week-old male C57BL/6 mice were placed in a breeding cage in which the following feeding conditions were kept: temperature, 22±2° C., humidity, 55±5%, and the light-dark cycle of 12-hour light and 12-hour dark. The mice were fed with fodders at the adaptive phase for one week; general solid fodders for test animals were administered to mice of the control group and mice during the adaptive phase. The initial day was defined as Day 0 when the adaptive phase for the mice was over. From the next week, the mice were interfered with samples under test and exposed to blue light. During the experiments, the mice were monitored for weights as well as water intakes and checked for any physiological change. The data for experiments through electroretinography (ERG), fndus photography (FP), fundus fluorescein angiograph (FFA), spectral-domain optical coherence tomography (SD-OCT) and intraocular pressure (IOP) were collected at Day 0, Day 21 and Day 35, as shown in FIG. 1 for the experimental process. The C57BL/6 mice, which weighed between 23 and 25 g, were divided into seven groups randomly. In each group, the six mice induced by blue light successfully were incorporated in experiments. The samples dissolved in deuterium-depleted water (DDW) were fed to mice through oral tubes once a day. The groups were named and introduced as follows: • (1) Solvent not classified group (NC): The mice were fed with 0.2 ml deuterium-depleted water (DDW) through tubes; • (2) Negative control group (Blue light (BL)): The mice were fed with 0.2 ml deuterium-depleted water (DDW) through tubes and exposed to blue light; • (3) Low-dosage Y7 probiotics group […]): The mice were fed with low-dosage Y7 probiotics (probiotic counts of 1.0×10^8 CFU/ml dissolved in 0.2 ml DDW per day) and exposed to blue light; • (4) High-dosage Y7 probiotics group […]): The mice were fed with high-dosage Y7 probiotics (probiotic counts of 1.0×10^9 CFU/ml dissolved in 0.2 ml DDW per day) and exposed to blue light; • (5) Positive control group (lutein (LU)): The mice were fed with lutein and exposed to blue light. The recommended human dosage of lutein is 30 mg. The mouse cage (48×25×20 cm) placed inside a stainless ventilated box was equipped with blue light boards as blue light sources around and above. In the experiment of animals exposed to blue light, six-week-old mice staying in the mouse cage were fed with drinking water as well as fodders and exposed to 400 Lux blue light illumination under the light-dark cycle of 12-hour light and 12-hour dark. The experiment was aimed at causing mice' late dry macular disease induced by chronic light injuries for simulating a human being's macular disease after long-term exposure to short-wavelength blue light from 3C products in daily life. All data written as the form of mean±standard error of the mean (S.E.M.) were used in the statistical analysis through the one-way ANOVA and the Newman-Keuls test; p<0.05 denoted statistical difference. In the experiment, the software for the statistical analysis was Graph pad Prism (v9.2.0). The data such as food intake, water intake, body weight, organ weight and other clinical examination data were analyzed with the one-way ANOVA.

[2] = system: MCP-1, IL-18, NLRP3, NF-KB p65, Caspase1 gene expression; assay: q-PCR of inflammation-related gene expression in eyes; assay type: in vivo, C57BL/6 mice; conditions: for gene expression of MCP-1 compared with the BL group / gene expression of NF-KB p65 compared with the BL group: p<0.05; for gene expression of Caspase1 / gene expression of IL-18 / gene expression of NLRP3: versus increase in BL group
Description: The C57BL/6 mice, which weighed between 23 and 25 g, were divided into seven groups randomly. In each group, the six mice induced by blue light successfully were incorporated in experiments. The samples dissolved in deuterium-depleted water (DDW) were fed to mice through oral tubes once a day. The groups were named and introduced as follows: • (1) Solvent not classified group (NC): The mice were fed with 0.2 ml deuterium-depleted water (DDW) through tubes; • (2) Negative control group (Blue light (BL)): The mice were fed with 0.2 ml deuterium-depleted water (DDW) through tubes and exposed to blue light; • (3) Low-dosage Y7 probiotics group […]): The mice were fed with low-dosage Y7 probiotics (probiotic counts of 1.0×10^8 CFU/ml dissolved in 0.2 ml DDW per day) and exposed to blue light; • (4) High-dosage Y7 probiotics group […]): The mice were fed with high-dosage Y7 probiotics (probiotic counts of 1.0×10^9 CFU/ml dissolved in 0.2 ml DDW per day) and exposed to blue light; • (5) Positive control group (lutein (LU)): The mice were fed with lutein and exposed to blue light. The recommended human dosage of lutein is 30 mg. The mouse cage (48×25×20 cm) placed inside a stainless ventilated box was equipped with blue light boards as blue light sources around and above. In the experiment of animals exposed to blue light, six-week-old mice staying in the mouse cage were fed with drinking water as well as fodders and exposed to 400 Lux blue light illumination under the light-dark cycle of 12-hour light and 12-hour dark. The experiment was aimed at causing mice' late dry macular disease induced by chronic light injuries for simulating a human being's macular disease after long-term exposure to short-wavelength blue light from 3C products in daily life. The eyes of a mouse sacrificed were collected for the following purposes. RNAs extracted with Trizol were reverse-transcribed to cDNAs. Then, the real-time quantitative polymerase chain reaction was enabled to detect gene expressions related to inflammatory hormones and apoptosis such as TNF-α, IL-1B, IL-6, Bax, Bcl-2, Caspase1, Caspase3 and NLRP3 for comparisons with the endogenous level of β-actin, GAPDH or 18S rRNA. [table] The gene expressions related to a mouse's ocular inflammation, for example, MCP-1 (FIG. 8a), IL-18 (FIG. 8b), NLRP3 (FIG. 8c), NF-KB p65 (FIG. 8d), Caspase1 (FIG. 8e), TNF-α (FIG. 8f), IL-6 (FIG. 8g) and IL-1β (FIG. 8h), were analyzed in the experiment. […] In summary, the intervention of Y7 probiotics relieved ocular inflammation attributed to blue light.

| Compound | body weights of mice ([1]; Day 0) | body weights of mice ([1]; Day 7) | body weights of mice ([1]; Day 14) | body weights of mice ([1]; Day 21) | body weights of mice ([1]; Day 28) | body weights of mice ([1]; Day 35) | gene expression of MCP-1 compared with the BL group ([2]; Y7H high-dosage group) | gene expression of NF-KB p65 compared with the BL group ([2]; Y7H high-dosage group) | gene expression of Caspase1 ([2]; Y7H high-dosage group) | gene expression of IL-18 ([2]; Y7H high-dosage group) | gene expression of NLRP3 ([2]; Y7H high-dosage group) | gene expression of MCP-1 compared with the BL group ([2]; Y7L low-dosage group) | gene expression of NF-KB p65 compared with the BL group ([2]; Y7L low-dosage group) | gene expression of Caspase1 ([2]; Y7L low-dosage group) | gene expression of IL-18 ([2]; Y7L low-dosage group) | gene expression of NLRP3 ([2]; Y7L low-dosage group) |
| --- | --- | --- | --- | --- | --- | --- | --- | --- | --- | --- | --- | --- | --- | --- | --- | --- |
| CC1=C[C@H](O)CC(C)(C)[C@H]1/C=C/C(C)=C/C=C/C(C)=C/C=C/C=C(C)/C=C/C=C(C)/C=C/C1=C(C)C[C@@H](O)CC1(C)C [lutein, reference compound] | 21.25 ± 1.52 | 21.35 ± 1.97 | 22.12 ± 2.09 | 22.12 ± 2.09 | 22.40 ± 1.97 | 22.88 ± 2.86 |  |  |  |  |  |  |  |  |  |  |
| Lactobacillus reuteri Y7 [Y7 probiotics] |  |  |  |  |  |  | reduced significantly | reduced significantly | decreased | decreased | decreased | reduced significantly | reduced significantly | decreased | decreased | decreased |

Source: patent publication US20250099517A1, “Use of Lactobacillus reuteri Y7 strain for prevention or treatment of ocular diseases” (Taipei Medical University, priority 2023, published 2025)
